Data taken from US5679708A, “Epoxysuccinic acid derivatives, their production and use” (Takeda Chemical Industries, Ltd., priority 1994, dated 1997).
Where a name gives a salt, the structure may show the parent alone.

Legend:
[1] = biological target: T1, human recombinant cathepsin L (Homo sapiens, UniProt P07711); experiment: Determination of cathepsin L inhibitory activity; format: biochemical; conditions: human recombinant cathepsin L 1 ng; 20 μM Z-Phe-Arg-7MCA; pH 5.5; 37° C., 20 minutes; read-out: Inhibitory activity potency IC50 (Cathepsin L) (converted)
T1 construct: they were identified as a precursor of human cathepsin L and a product processed therefrom; made in house; host or cells: mouse myeloma Sp2/0 cells stably transformed with pTBN-HCLneo (Sp-HCL26); secreted, purified from serum-free culture supernatant
Method: (a) Determination of cathepsin L inhibitory activity
To 75 μl of a reaction mixture containing 1 ng of human recombinant cathepsin L (those produced in Reference Examples 1 through 7 below were employed), 2 μM of dithiothreitol (hereinafter abbreviated as DTT), 1 mM of ethylenediaminetetraacetate disodium salt, 0.1M of a sodium acetate buffer solution (pH 5.5) and various concentrations of the sample, 25 μl of 20 μM benzyloxycarbonyl-L-phenylalanyl-L-arginine-4-methylcoumaryl-7-amide (hereinafter simply referred to as Z-Phe-Arg-7MCA, manufactured by Peptide Institute, Inc.) was added to initiate the reaction, and the reaction mixture was incubated at 37° C. for 20 minutes, followed by addition of 100 μl of a solution containing 100 mM of sodium monochloroacetate to suspend the reaction. The amount of liberated 4-methyl-7-aminocoumarin was determined at an excitation wavelength of 365 nm and a fluorescence wavelength of 450 nm, using a fluorophotometer (FCA: manufactured by Baxter Labs). The sample concentration required to cause 50% inhibition was expressed as the IC50 value, with the fluorescence value obtained from the same reaction in the absence of the sample taken as 100%.

[2] = system: bone resorption as enhanced by PTH (parathyroid hormone); experiment: Determination of bone resorption suppressive activity (PTH-enhanced, isolated mouse femur culture); format: cell-based, female BALB/c mice; conditions: 168 h, test compound 10 μg/ml, PTH 1 μM, 7 days culture, total calcium content, 100x(Cp-Cs)/(Cp-Cc)
Method: Further, the compound (I) of this invention or salts thereof have an excellent activity of suppressing bone resorption. Their suppressive action against bone resorption as enhanced by PTH (parathyroid hormone) was determined by the method described below. The results are shown in [Table 3].
Determination of bone resorption suppressive activity
Femurs were aseptically isolated from female BALB/c mice at 8-10 weeks of age. After the bone marrow cavity was washed with a Ham's F-12 medium containing 10% (w/w) thermally inactivated fetal calf serum, 100 unit/ml penicillin G and 100 unit/ml streptomycin (hereinafter referred to as culture broth), each femur was added to 1 ml of the culture broth and precultured for 3 hours at 37° C. in the presence of 5% carbon dioxide gas and 95% air. Each bone was transferred to 1 ml of the culture broth supplemented with PTH (produced by Peptide Institute, Inc., final concentration of 1 μM) and the test compound (final concentration 10 μg/ml (and cultured for 7 more days, after which the total calcium content in the culture broth was determined using Calcium E-Test Wako (manufactured by Wako Pure Chemical Industries, Ltd.). The bone resorption suppressive activity of the test compound was calculated using the following equation:
Bone resorption suppressive activity(%)=100x(Cp-Cs)/(Cp-Cc)
Cc: Total calcium content in the culture broth containing neither PTH nor test compound
Cp: Total calcium content in the culture broth containing PTH
Cs: Total calcium content in the culture broth containing both PTH and test compound

cathepsin B = biological target: T2, cathepsin B (Homo sapiens, UniProt P07858); experiment: Determination of cathepsin B inhibitory activity; format: biochemical; conditions: cathepsin B 30 ng (Sigma); 20 μM Z-Phe-Arg-7MCA; pH 5.5; 37° C., 20 minutes; read-out: Inhibitory activity potency IC50 (TABLE 2, head printed Cathepsin L) (converted)
T2 construct: purchased Sigma Chemical Co
Method: (b) Determination of cathepsin B inhibitory activity
To 75 μl of a reaction mixture containing 30 ng of cathepsin B (produced by Sigma Chemical Co.), 2 μM DTT, 1 mM ethylenediaminetetraacetate disodium salt, 0.1M sodium acetate buffer (pH 5.5) and various concentrations of the sample, 25 μl of 20 μM Z-Phe-Arg-7MCA was added to initiate the reaction, and the reaction mixture was incubated at 37° C. for 20 minutes, followed by addition of 100 μl of a solution containing 100 mM sodium monochloroacetate to suspend the reaction. The amount of liberated 4-methyl-7-aminocoumarin was determined at an excitation wavelength of 365 nm and a fluorescence wavelength of 450 nm, using a fluorophotometer. The sample concentration required to cause 50% inhibition was expressed as the IC50 value, with the fluorescence value obtained from the same reaction in the absence of the sample taken as 100%.

Toxicity study = format: in vivo; conditions: rats, orally, 300 mg/kg
Method: Compound 1 caused no death in rats when it was orally administered at 300 mg/kg.

T1 sequence (P07711 114-333): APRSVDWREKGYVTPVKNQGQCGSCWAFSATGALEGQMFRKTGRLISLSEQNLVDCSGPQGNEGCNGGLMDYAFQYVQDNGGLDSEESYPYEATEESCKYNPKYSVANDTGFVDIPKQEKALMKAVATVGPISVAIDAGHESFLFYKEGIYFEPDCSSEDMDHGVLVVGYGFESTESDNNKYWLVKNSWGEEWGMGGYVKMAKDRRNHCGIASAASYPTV

Row | IC50 [1] [nM] | IC50 (cathepsin B) [nM] | SMILES | inhibition at 10 µg/mL [2] [%] | death after oral administration (Toxicity study)
1 |  |  | O=C(NCCCO)[C@H](Cc1ccccc1)NC(=O)[C@H]1O[C@@H]1C(=O)O [Compound 4, N-[N-[(2S,3S)-3-trans-carboxyoxirane-2-carbonyl]-L-phenylalanyl]-3-amino-1-propanol monosodium salt] | 176 | 
2 | 8.19 | 5.46 | CSCCCNC(=O)[C@H](Cc1ccccc1)NC(=O)[C@H]1O[C@@H]1C(=O)O [Compound 8, N-[N-[(2S,3S)-3-trans-carboxyoxirane-2-carbonyl]-L-phenylalanyl]-1-amino-3-methylthiopropane monosodium salt] | 142 | 
3 | 8.56 |  | COCCCNC(=O)[C@H](Cc1ccccc1)NC(=O)[C@H]1O[C@@H]1C(=O)O [Compound 2, N-[N-[(2S,3S)-3-trans-carboxyoxirane-2-carbonyl]-L-phenylalanyl]-1-amino-3-methoxypropane monosodium salt] |  | 
4 |  |  | CCOC(=O)[C@H]1O[C@@H]1C(=O)N[C@@H](Cc1ccccc1)C(=O)NCCCOC [Compound 1, N-[N-[(2S,3S)-3-trans-ethoxycarbonyloxysirane-2-carbonyl]-L-phenylalanyl]-1-amino-3-methoxypropane] |  | no death

Row | SMILES | IC50 [1] [nM] | IC50 (cathepsin B) [nM] | inhibition at 10 µg/mL [2] [%] | death after oral administration (Toxicity study)
5 | CC(=O)OCCCNC(=O)[C@H](Cc1ccccc1)NC(=O)[C@H]1O[C@@H]1C(=O)O [Compound 6, N-[N-[(2S,3S)-3-trans-carboxyoxirane-2-carbonyl]-L-phenylalanyl]-3-amino-acetoxypropane monosodium salt] | 13.2 |  | 144 | 
